Earlier results, collected in PubChem BioAssay AID1259409 (Chemical Carcinogenesis Research Information System (CCRIS), 2018).

System: rodent chemically induced tumor inhibition, incidence and multiplicity
Assay: CCRIS tumor inhibitor studies

COc1ccc2[nH]cc(CCNC(C)=O)c2c1
tumour outcome (control, treated, inhibition, significance) (Carcinogen: 1,2-DIMETHYLHYDRAZINE [540-73-8], Dose [Inhibitor]: 20 UG/ML IN DRINKING WATER 14 HR/D AT NIGHT TIME FOR 6 MONTHS (STUDY DURATION: 6 MONTHS), Route [Inhibitor]: ORAL, Species: RAT, Strain/Sex: LIO/FEMALE, Target Tissue: Type of Lesion: ASCENDING COLON: TUMOR, Dose [Carcinogen]: 21 MG/KG BW 1X/WK FOR 15 WK (STUDY DURATION: 6 MONTHS), Promoter: NONE): 23/25 (92.0%), 15/23 (65.2%), 29%, p<0.01
tumour outcome (control, treated, inhibition, significance) (Carcinogen: 1,2-DIMETHYLHYDRAZINE [540-73-8], Dose [Inhibitor]: 20 UG/ML IN DRINKING WATER 14 HR/D AT NIGHT TIME FOR 6 MONTHS (STUDY DURATION: 6 MONTHS), Route [Inhibitor]: ORAL, Species: RAT, Strain/Sex: LIO/FEMALE, Target Tissue: Type of Lesion: DESCENDING COLON: TUMOR, Dose [Carcinogen]: 21 MG/KG BW 1X/WK FOR 15 WK (STUDY DURATION: 6 MONTHS), Promoter: NONE): 25/25 (100.0%), 23/23 (100.0%), 0%, not significant
tumour outcome (control, treated, inhibition, significance) (Carcinogen: 1,2-DIMETHYLHYDRAZINE [540-73-8], Dose [Inhibitor]: 20 UG/ML IN DRINKING WATER 14 HR/D AT NIGHT TIME FOR 6 MONTHS (STUDY DURATION: 6 MONTHS), Route [Inhibitor]: ORAL, Species: RAT, Strain/Sex: LIO/FEMALE, Target Tissue: Type of Lesion: DUODENUM: TUMOR, Dose [Carcinogen]: 21 MG/KG BW 1X/WK FOR 15 WK (STUDY DURATION: 6 MONTHS), Promoter: NONE): 8/25 (32.0%), 5/23 (21.7%), 32%, not significant
tumour outcome (control, treated, inhibition, significance) (Carcinogen: 1,2-DIMETHYLHYDRAZINE [540-73-8], Dose [Inhibitor]: 20 UG/ML IN DRINKING WATER 14 HR/D AT NIGHT TIME FOR 6 MONTHS (STUDY DURATION: 6 MONTHS), Route [Inhibitor]: ORAL, Species: RAT, Strain/Sex: LIO/FEMALE, Target Tissue: Type of Lesion: JEJUNUM AND ILIUM: TUMOR, Dose [Carcinogen]: 21 MG/KG BW 1X/WK FOR 15 WK (STUDY DURATION: 6 MONTHS), Promoter: NONE): 4/25 (16.0%), 1/23 (4.3%), 73%, p<0.05
tumour outcome (control, treated, inhibition, significance) (Carcinogen: 1,2-DIMETHYLHYDRAZINE [540-73-8], Dose [Inhibitor]: 20 UG/ML IN DRINKING WATER 14 HR/D AT NIGHT TIME FOR 6 MONTHS (STUDY DURATION: 6 MONTHS), Route [Inhibitor]: ORAL, Species: RAT, Strain/Sex: LIO/FEMALE, Target Tissue: Type of Lesion: RECTUM: TUMOR, Dose [Carcinogen]: 21 MG/KG BW 1X/WK FOR 15 WK (STUDY DURATION: 6 MONTHS), Promoter: NONE): 11/25 (44.0%), 11/23 (47.8%), -9%, not significant
tumour outcome (control, treated, inhibition, significance) (Carcinogen: 7, 12-DIMETHYLBENZ(A)ANTHRACENE [57-97-6], Dose [Inhibitor]: 20 UG/ML IN DRINKING WATER, 17 HR/D BEGINNING 5 D BEFORE FIRST CARCINOGEN DOSE FOR 13 WK (STUDY DURATION: 13 WK), Route [Inhibitor]: ORAL, Species: RAT, Strain/Sex: SPRAGUE-DAWLEY/FEMALE, Target Tissue: Type of Lesion: MAMMARY GLAND: TUMOR, Dose [Carcinogen]: 10 MG THREE TIMES BETWEEN POSTNATAL DAYS 45-59): 23/24 (95.8%), 21/28 (75%), 21.5%, p<0.05
tumour outcome (control, treated, inhibition, significance) (Carcinogen: 7,12-DIMETHYLBENZ[A]ANTHRACENE [57-97-6], Dose [Inhibitor]: 10 MG/KG BW DAILY BETWEEN 45 AND 59 D OF AGE, Route [Inhibitor]: INTRAGASTRIC (GAVAGE) IN HYDROXYETHYLCELLULOSE SOLUTION, Species: RAT, Strain/Sex: SPRAGUE-DAWLEY/FEMALE, Target Tissue: Type of Lesion: MAMMARY: ADENOCARCINOMA, Dose [Carcinogen]: 75 MG/KG BW IN SESAME OIL AT 60 D OF AGE (STUDY DURATION: 1 YR)): 75%, 43%, 43%, p=0.04 (at 6 mo)
tumour outcome (control, treated, inhibition, significance) (Carcinogen: 7,12-DIMETHYLBENZ[A]ANTHRACENE [57-97-6], Dose [Inhibitor]: 10 MG/KG BW DAILY FOR 6 MO AFTER CARCINOGEN ADMINISTRATION, Route [Inhibitor]: INTRAGASTRIC (GAVAGE), Species: RAT, Strain/Sex: SPRAGUE-DAWLEY/FEMALE, Target Tissue: Type of Lesion: MAMMARY: ADENOCARCINOMA, Dose [Carcinogen]: 75 MG/KG BW AT 55 D OF AGE (STUDY DURATION: 1 YR)): 75%, 35%, 53%, p=0.01 (at 6 mo)
tumour outcome (control, treated, inhibition, significance) (Carcinogen: 7,12-DIMETHYLBENZ[A]ANTHRACENE [57-97-6], Dose [Inhibitor]: 20 UG/ML IN DRINKING WATER 15 HR/D FOR 4 MONTHS BEGINNING AT THE TIME OF THE FIRST CARCINOGEN DOSE (STUDY DURATION: 6 MO, Route [Inhibitor]: ORAL, Species: MOUSE, Strain/Sex: CBA/FEMALE, Target Tissue: Type of Lesion: VAGINA AND CERVIX: TUMOR, Dose [Carcinogen]: 0.1% IN TRIETHYLENEGLYCOL IN A POLYURETHANE SPONGE 3 HR/D 2 D/WK FOR 2 MONTHS (STUDY DURATION: 6 MO), Promoter: NONE): 7/20 (35%), 3/20 (15%), 57%, not significant
tumour outcome (control, treated, inhibition, significance) (Carcinogen: 7,12-DIMETHYLBENZ[A]ANTHRACENE, 57-97-6, Dose [Inhibitor]: 0, 20 UG/ML IN DRINKING WATER 17 HR/D 4 D/WK FOR 26 WK BEGINNING 45 D OF AGE (STUDY DURATION: 26 WK), Route [Inhibitor]: ORAL, Species: RAT, Strain/Sex: SD/FEMALE, Target Tissue: Type of Lesion: MAMMARY GLAND: TUMOR, Dose [Carcinogen]: 10 UG/ANIMAL IN CORN OIL INTRAGASTRICALLY ON 45, 50, 55 D OF AGE): 100%, 42%, 58%, p<0.001
tumour outcome (control, treated, inhibition, significance) (Carcinogen: 7,12-DIMETHYLBENZ[A]ANTHRACENE, 57-97-6, Dose [Inhibitor]: 0, 20 UG/ML IN DRINKING WATER FOR 17 HR/D FOR THE DURATION OF STUDY (STUDY DURATION: 180 D), Route [Inhibitor]: ORAL, Species: RAT, Strain/Sex: SPRAGUE-DAWLEY/FEMALE, Target Tissue: Type of Lesion: MAMMARY GLAND: TUMOR, Dose [Carcinogen]: 20 MG/ANIMAL GAVAGE ONCE 10 D POST INHIBITOR TREATMENT (STUDY DURATION: 178 D), Promoter: NONE): 16/24 (66.6%), 15/25 (60.0%), 10%, not significant
tumour outcome (control, treated, inhibition, significance) (Carcinogen: GAMMA RAYS: 7,12-DIMETHYLBENZ[A]ANTHRACENE [57-97-6], Dose [Inhibitor]: 0, 100 UG/ML IN DRINKING WATER FOR 28 WK (STUDY DURATION: 28 WK), Route [Inhibitor]: ORAL, Species: RAT, Strain/Sex: WISTAR: HAN/FEMALE, Target Tissue: Type of Lesion: MAMMARY GLAND: TUMOR, Dose [Carcinogen]: 96 MGY FORM CO-60 SOURCE FOR 2 WK (TOTAL ACCUMULATED DOSE 1.44 GY), THEN 3 DOSES OF 10 MG DMBA BY GAVAGE (STUDY DURATION, Promoter: NONE): 48.3%, 50.0%, -3.5%, not significant
